Experimental findings from patent publication US20250195530A1, “POLQ INHIBITORS” (ASTRAZENECA AB, priority 2022, published 2025) are described below.

For the first assay, the system named is DLD-1 BRCA2−/− cells. As to the kind of experiment: Homologous recombination synthetic lethal inhibition of proliferation, DLD-1 BRCA2-/- (Cell Titre Glo 3D). The class given is cell-based. The conditions noted are these: Homo sapiens, DLD-1, DLD-1 BRCA2-/- proliferation; column head only partly shown; read-out: POLQ PD Prolif Lumin (converted). Put shortly: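 Wild-type DLD-1 serves as the control for non-specific toxicity, and BRCA2-null DLD-1 as the homologous-recombination-deficient line. Both grew with compound from 10 μM down to 0.51 nM, re-dosed after 6 days. Luminescent ATP content (CellTiter-Glo 3D) was read after 7 or 12 days, respectively, to give IC50 values.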
Consider `CNC(=O)CCc1ccc(-c2nc3c(OC4(C)CC4)ncnc3n2Cc2cc(C)ccn2)c(Cl)c1` [Example T214, 3-(3-chloro-4-(6-(1-methylcyclopropoxy)-9-((4-methylpyridin-2-yl)methyl)-9H-purin-8-yl)phenyl)-N-methylpropanamide], for which the IC50 was 0.316 µM.

In the case of `Cc1ccnc(Cn2c(-c3ccc(C(=O)NC[C@H](C)O)cc3Cl)nc3c(OC4(C)CC4)ncnc32)c1` [Example T218, (S)-3-chloro-N-(2-hydroxypropyl)-4-(6-(1-methylcyclopropoxy)-9-((4-methylpyridin-2-yl)methyl)-9H-purin-8-yl)benzamide], the IC50 is 0.631 µM. The same measure, in the same setting: then `COC(=O)NCCOc1ccc(-c2nc3c(OC4(C)CC4)ncnc3n2Cc2cc(C)ccn2)c(Cl)c1` [Example T228, methyl (2-(3-chloro-4-(6-(1-methylcyclopropoxy)-9-((4-methylpyridin-2-yl)methyl)-9H-purin-8-yl)phenoxy)ethyl)carbamate], with 0.126 µM; and `Cc1ccnc(Cn2c(-c3ccc(C(=O)N4C[C@@H](O)[C@H](F)C4)cc3Cl)nc3c(OC4(C)CC4)ncnc32)c1` [Example T282, (3-chloro-4-(6-(1-methylcyclopropoxy)-9-((4-methylpyridin-2-yl)methyl)-9H-purin-8-yl)phenyl)((3R,4R)-3-fluoro-4-hydroxypyrrolidin-1-yl)methanone], with 2.51 µM.

The same assay, now with this note: Homo sapiens, DLD-1, DLD-1 BRCA2 −/− cells; mean; read-out: POLQ PD Prolif Lumin BRCA2 −/− mean pIC50 (converted).
As to `Cc1ccnc(Cn2c(-c3cc(CC(N)=O)ccc3Cl)nc3c(OC4(C)CC4)ncnc32)c1` [Example T57, 2-(4-chloro-3-(6-(1-methylcyclopropoxy)-9-((4-methylpyridin-2-yl)methyl)-9H-purin-8-yl)phenyl)acetamide], the IC50 was above 10 µM. For the compound `Cc1cccc(Cn2c(-c3ccc(CC(N)=O)cc3Cl)nc3c(OC4(C)CC4)ncnc32)c1` [Example T99, 2-(3-chloro-4-(9-(3-methylbenzyl)-6-(1-methylcyclopropoxy)-9H-purin-8-yl)phenyl)acetamide], the IC50 is 0.0794 µM. On to `CNC(=O)Nc1ccc(-c2nc3c(OC4(C)CC4)ncnc3n2Cc2cc(C)ccn2)c(Cl)c1` [Example T66, 1-(3-chloro-4-(6-(1-methylcyclopropoxy)-9-((4-methylpyridin-2-yl)methyl)-9H-purin-8-yl)phenyl)-3-methylurea], for which the IC50 was 0.398 µM. For the compound `CC1(Oc2ncnc3c2nc(-c2ccc(NCCC(=O)O)cc2Cl)n3Cc2cccc(Cl)c2)CC1` [Example T97, 3-((3-chloro-4-(9-(3-chlorobenzyl)-6-(1-methylcyclopropoxy)-9H-purin-8-yl)phenyl)amino)propanoic acid], the IC50 is 1.26 µM. Same read-out and setting: then `CNC(=O)COc1ccc(-c2nc3c(OC4(C)CC4)ncnc3n2Cc2cc(Cl)ccn2)c(Cl)c1` [Example T51, 2-(3-chloro-4-(9-((4-chloropyridin-2-yl)methyl)-6-(1-methylcyclopropoxy)-9H-purin-8-yl)phenoxy)-N-methylacetamide], with 0.158 µM; and `Cc1ccnc(Cn2c(-c3ccc(OCC(N)=O)cc3Cl)nc3c(OC4(C)CC4)ncnc32)c1` [Example T61, 2-(3-chloro-4-(6-(1-methylcyclopropoxy)-9-((4-methylpyridin-2-yl)methyl)-9H-purin-8-yl)phenoxy)acetamide], with 0.251 µM; and `Cc1ncsc1CCn1c(-c2ccc(CC(N)=O)cc2Cl)nc2c(OC3(C)CC3)ncnc21` [Example T26, 2-(3-chloro-4-(6-(1-methylcyclopropoxy)-9-(2-(4-methylthiazol-5-yl)ethyl)-9H-purin-8-yl)phenyl)acetamide], with 0.316 µM.

Still in this assay, the particulars now being: Homo sapiens, DLD-1, DLD-1 BRCA2 −/−, mean; read-out: POLQ PD Prolif Lumin BRCA2 −/− mean pIC50 (converted).
Consider `CC1(Oc2ncnc3c2nc(-c2ccc(OCCC(C)(C)C(=O)O)cc2Cl)n3Cc2ccccc2C#N)CC1` [Example U17, 4-(3-chloro-4-(9-(2-cyanobenzyl)-6-(1-methylcyclopropoxy)-9H-purin-8-yl)phenoxy)-2,2-dimethylbutanoic acid], for which the IC50 was 0.251 µM.

The assay is the same for the next values; noted with them: Homo sapiens, DLD-1, first proliferation column (c5), taken as DLD-1 BRCA2-/-; read-out: POLQ PD Prolif Lumin (converted).
Take `Cc1ccnc(Cn2c(-c3ccc(N4CCC(O)CC4=O)cc3Cl)nc3c(OC4(C)CC4)ncnc32)c1` (racemic) [Example T321, 1-(3-chloro-4-(6-(1-methylcyclopropoxy)-9-((4-methylpyridin-2-yl)methyl)-9H-purin-8-yl)phenyl)-4-hydroxypiperidin-2-one]: the IC50 was 3.98 µM.

For the compound `CC(=O)NCCCOc1ccc(-c2nc3c(OC4(C)CC4)ncnc3n2Cc2cc(C)ccn2)c(Cl)c1` [Example T367, N-(3-(3-chloro-4-(6-(1-methylcyclopropoxy)-9-((4-methylpyridin-2-yl)methyl)-9H-purin-8-yl)phenoxy)propyl)acetamide], the IC50 was 0.316 µM.

Consider `CC[C@H](CO)NC(=O)c1ccc(-c2nc3c(OC4(C)CC4)ncnc3n2Cc2cc(C)ccn2)c(Cl)c1` [Example T361, (R)-3-chloro-N-(1-hydroxybutan-2-yl)-4-(6-(1-methylcyclopropoxy)-9-((4-methylpyridin-2-yl)methyl)-9H-purin-8-yl)benzamide], for which the IC50 was 0.631 µM.

As for `Cc1ccnc(Cn2c(-c3ccc(OCC(=O)NC(C)C)cc3Cl)nc3c(OC4(C)CC4)ncnc32)c1` [Example T366, 2-(3-chloro-4-(6-(1-methylcyclopropoxy)-9-((4-methylpyridin-2-yl)methyl)-9H-purin-8-yl)phenoxy)-N-isopropylacetamide], the IC50 was 0.2 µM.

The assay is the same for the next values; noted with them: Homo sapiens, DLD-1, first proliferation column (c5); DLD-1 BRCA2-/-; read-out: POLQ PD Prolif Lumin (converted).
For `Cc1ccnc(Cn2c(-c3ccc(O[C@H]4CNC(=O)C4)cc3Cl)nc3c(OC4(C)CC4)ncnc32)c1` [Example T183, (R)-4-(3-chloro-4-(6-(1-methylcyclopropoxy)-9-((4-methylpyridin-2-yl)methyl)-9H-purin-8-yl)phenoxy)pyrrolidin-2-one], the IC50 is 0.398 µM. In the case of `Cc1ccnc(Cn2c(-c3ccc(CC(=O)N4CC5(CCN5)C4)cc3Cl)nc3c(OC4(C)CC4)ncnc32)c1` [Example T556, 2-(3-chloro-4-(6-(1-methylcyclopropoxy)-9-((4-methylpyridin-2-yl)methyl)-9H-purin-8-yl)phenyl)-1-(1,6-diazaspiro[3.3]heptan-6-yl)ethan-1-one], the IC50 is 6.31 µM. Regarding `COc1cccc(Cn2c(-c3ccc(CC(N)=O)cc3Cl)nc3c(OC4(C)CC4)ncnc32)c1` [Example T105, 2-(3-chloro-4-(9-(3-methoxybenzyl)-6-(1-methylcyclopropoxy)-9H-purin-8-yl)phenyl)acetamide], the IC50 was 0.631 µM. As for `CC(C)(CCOc1ccc(-c2nc3c(OC4(C)CC4)ncnc3n2Cc2cccc(Cl)c2)c(Cl)c1)CC(=O)O` [Example T562, 5-(3-chloro-4-(9-(3-chlorobenzyl)-6-(1-methylcyclopropoxy)-9H-purin-8-yl)phenoxy)-3,3-dimethylpentanoic acid], the IC50 was 0.126 µM.

Regarding `Cc1ccnc(Cn2c(-c3ccc(C(=O)NCCCF)cc3Cl)nc3c(OC4(C)CC4)ncnc32)c1` [Example T191, 3-chloro-N-(3-fluoropropyl)-4-(6-(1-methylcyclopropoxy)-9-((4-methylpyridin-2-yl)methyl)-9H-purin-8-yl)benzamide], the IC50 was 0.398 µM. For the compound `Cc1ccnc(Cn2c(-c3ccc(OC[C@H]4CNC(=O)O4)cc3Cl)nc3c(OC4(C)CC4)ncnc32)c1` [Example T188, (R)-5-((3-chloro-4-(6-(1-methylcyclopropoxy)-9-((4-methylpyridin-2-yl)methyl)-9H-purin-8-yl)phenoxy)methyl)oxazolidin-2-one], the IC50 was 0.501 µM. `Cc1ccnc(Cn2c(-c3ccc(OCCNS(C)(=O)=O)cc3Cl)nc3c(OC4(C)CC4)ncnc32)c1` [Example T144, N-(2-(3-chloro-4-(6-(1-methylcyclopropoxy)-9-((4-methylpyridin-2-yl)methyl)-9H-purin-8-yl)phenoxy)ethyl)methanesulfonamide]: the IC50 is 0.158 µM.

Still in this assay, the particulars now being: Homo sapiens, DLD-1, first proliferation column; DLD-1 BRCA2-/-; read-out: POLQ PD Prolif Lumin (converted).
With `CC(=O)N1CCN(CCOc2ccc(-c3nc4c(OC5(C)CC5)ncnc4n3Cc3cc(C)ccn3)c(Cl)c2)CC1` [Example T607, 1-(4-(2-(3-chloro-4-(6-(1-methylcyclopropoxy)-9-((4-methylpyridin-2-yl)methyl)-9H-purin-8-yl)phenoxy)ethyl)piperazin-1-yl)ethan-1-one], the IC50 was 0.126 µM.

Staying with this assay, now noted: Homo sapiens, DLD-1, proliferation, luminescence, taken as DLD-1 BRCA2-/-; read-out: POLQ PD Prolif Lumin (converted).
For `CC(CCOc1ccc(-c2nc3c(OC4(C)CC4)ncnc3n2Cc2cccc(C(F)(F)F)c2)c(Cl)c1)C(=O)O` (single isomer, unassigned) [Example T396, 4-(3-chloro-4-(6-(1-methylcyclopropoxy)-9-(3-(trifluoromethyl)benzyl)-9H-purin-8-yl)phenoxy)-2-methylbutanoic acid], the IC50 is 0.251 µM. As for `Cc1ccnc(Cn2c(-c3ccc(OCCN4CCOCC4=O)cc3Cl)nc3c(OC4(C)CC4)ncnc32)c1` [Example T481, 4-(2-(3-chloro-4-(6-(1-methylcyclopropoxy)-9-((4-methylpyridin-2-yl)methyl)-9H-purin-8-yl)phenoxy)ethyl)morpholin-3-one], the IC50 is 0.316 µM. As to `COc1cccc(Cn2c(-c3ccc(OCCC(C)C(=O)O)cc3Cl)nc3c(OC4(C)CC4)ncnc32)c1` (racemic) [Example T454, 4-(3-chloro-4-(9-(3-methoxybenzyl)-6-(1-methylcyclopropoxy)-9H-purin-8-yl)phenoxy)-2-methylbutanoic acid], the IC50 is 0.794 µM. Still for that read-out and setting: then `CCC(CCOc1ccc(-c2nc3c(OC4(C)CC4)ncnc3n2Cc2cccc(Cl)c2)c(Cl)c1)C(=O)O` (racemic) [Example T441, 4-(3-chloro-4-(9-(3-chlorobenzyl)-6-(1-methylcyclopropoxy)-9H-purin-8-yl)phenoxy)-2-ethylbutanoic acid], with 0.158 µM.
